{"source": "patent US20100324017A1", "about": "“ACYLGUANIDINE DERIVATIVE” (priority 2007, published 2010)", "tested_on": "MK-801-induced spontaneous alternation behavior disorder", "experiment": "MK-801-induced spontaneous alternation behavior disorder in mice (Y-maze)", "assay_type": "in vivo", "settings": "mouse, oral, dose 0.003 mg/kg; MK-801 0.15 mg/kg i.p.", "description": "An Improvement Effect for Scopolamine-Induced or MK-801-Induced Spontaneous Alternation Behavior in Mice\nAn improvement effect of the compound (I) for cognitive impairment was evaluated by the above-described well-known test method as a model of a short-term learning disorder.\nSpecies: Male ddY mice/number of animals (number of animals per group): 6 to 10 animals per group\nA mouse was introduced into the laboratory 1 hour before starting the test. The mouse was placed at one end of an arm in a Y-maze having equal lengths of arms in three directions, and was able freely explored for 8 minutes with the number of the entries into the arms were counted. Furthermore, a spontaneous alternation behavior was defined as consecutive entries into each of the three arms, and an alternation rate was defined as the percentage of the number of time of this behavior relative to the total number of the entries, and calculated by the following equation.\nAlternation rate (%)=(number of spontaneous alternation behaviors/total number of entries−2)×100. […]\nThe alternation rate (%) is expressed as an average value in each group (mean±SE). […] By carrying out the Dunnett evaluation for the group administered with the compound to be tested relative to the control group, the presence or absence of the learning disorder action of the compound to be tested was determined. […]", "data": [{"smiles": "NC(N)=NC(=O)c1ccc2c3ccccc3n(C3CCOCC3)c2c1", "note": "[Example 25]", "values": [{"measurement": "improvement of MK-801-induced spontaneous alternation behavior disorder", "value": "significantly improved"}]}]}
